Measurements taken from patent US5137922A (priority 1989, dated 1992).
Like-named read-outs stand apart in the source and are kept apart here.

Key:
[1] = tested on: type B influenza virus; experiment: microbe, parasite or virus in culture; type: cell-based, B/USSA/100/83E; conditions: unidentified influenza virus, read-out: percentage of inhibition against infection; for inhibition at 4 µg/mL: 5 min; for inhibition at 1 µg/mL: 1 h
[2] = tested on: type A influenza virus; experiment: microbe, parasite or virus in culture; type: cell-based, A/Sichuan/2/87(H3N2)
[3] = target: hemaglutinin (HA) (Influenza A virus (A/Sichuan/2/1987(H3N2)), UniProt H9XCU1); experiment: Hemaglutinin activity of type A influenza virus after treatment (agglutination of red blood cells); type: biochemical, A/Sichuan/2/87(H3N2); conditions: FIG. 1, concentration dependence
[4] = tested on: virus; experiment: Electron microscope observation of virus suspension with EGCg; conditions: EGCg added to suspension of the virus
Description: The […] (PTA) dyeing method was utilized.

[5] = target: neuraminidase (NA) (Influenza B virus (B/USSR/100/83), UniProt P16205); type: biochemical, type B influenza virus, B/USSA/100/83E; conditions: control 11.0

| Structure (SMILES) | inhibition at 4 µg/mL [1] [%] | inhibition at 1 µg/mL [1] [%] | infection inhibiting power ([2]; FIG. 1, concentration dependence) | inhibition at 0.5 µg/mL ([2]; unidentified influenza virus, MDCK, 1 h, read-out: inhibition of infection) [%] | number of plaques ([2]; virus treated 1 hour, 0.5 μg/ml) | hemaglutinin activity inhibiting power [3] | behavior of the virus under electron microscope [4] | NA activity ([5]; 50 μg/ml) | NA activity ([5]; 100 μg/ml) |
| --- | --- | --- | --- | --- | --- | --- | --- | --- | --- |
| O=C(O[C@@H]1Cc2c(O)cc(O)cc2O[C@@H]1c1cc(O)c(O)c(O)c1)c1cc(O)c(O)c(O)c1 [EGCg, (-)epigallocatechin gallate] | 100 | 100 | depend on the concentration | 100 | zero | depend on the concentration | instantaneous formation of agglutinated lumps of the viruses | 8.00 | 5.10 |
| O=C(O[C@@H]1Cc2c(O)cc(O)cc2O[C@@H]1c1cc(O)c(=O)c2c(O)c(O)cc([C@H]3Oc4cc(O)cc(O)c4C[C@H]3OC(=O)c3cc(O)c(O)c(O)c3)c2c1)c1cc(O)c(O)c(O)c1 [TF3, theaflavin digallate] | 100 | 100 |  |  |  |  |  |  |  |
